Reference: patent US20220306659A1, “COMPOUND INHIBITING AND INDUCING DEGRADATION OF EGFR AND ALK” (BEIJING TIDE PHARMACEUTICAL CO., LTD., priority 2019, published 2022)

Columns and labels:
Ba/F3(EML4-ALK) cells = molecular target: T1, Ba/F3(EML4-ALK) cells (Homo sapiens, UniProt Q9UM73); test: Assay of activity on Ba/F3(EML4-ALK) cells (CTG, 72 h); assay type: cell-based; conditions: read-out: IC50 (nM) Ba/F3(EML4-ALK)
T1 construct: fused on or other part: Q9HC35 (Echinoderm microtubule-associated protein-like 4)
T1 sequence (Q9UM73 whole entry, change not shown, the tested form may be a part): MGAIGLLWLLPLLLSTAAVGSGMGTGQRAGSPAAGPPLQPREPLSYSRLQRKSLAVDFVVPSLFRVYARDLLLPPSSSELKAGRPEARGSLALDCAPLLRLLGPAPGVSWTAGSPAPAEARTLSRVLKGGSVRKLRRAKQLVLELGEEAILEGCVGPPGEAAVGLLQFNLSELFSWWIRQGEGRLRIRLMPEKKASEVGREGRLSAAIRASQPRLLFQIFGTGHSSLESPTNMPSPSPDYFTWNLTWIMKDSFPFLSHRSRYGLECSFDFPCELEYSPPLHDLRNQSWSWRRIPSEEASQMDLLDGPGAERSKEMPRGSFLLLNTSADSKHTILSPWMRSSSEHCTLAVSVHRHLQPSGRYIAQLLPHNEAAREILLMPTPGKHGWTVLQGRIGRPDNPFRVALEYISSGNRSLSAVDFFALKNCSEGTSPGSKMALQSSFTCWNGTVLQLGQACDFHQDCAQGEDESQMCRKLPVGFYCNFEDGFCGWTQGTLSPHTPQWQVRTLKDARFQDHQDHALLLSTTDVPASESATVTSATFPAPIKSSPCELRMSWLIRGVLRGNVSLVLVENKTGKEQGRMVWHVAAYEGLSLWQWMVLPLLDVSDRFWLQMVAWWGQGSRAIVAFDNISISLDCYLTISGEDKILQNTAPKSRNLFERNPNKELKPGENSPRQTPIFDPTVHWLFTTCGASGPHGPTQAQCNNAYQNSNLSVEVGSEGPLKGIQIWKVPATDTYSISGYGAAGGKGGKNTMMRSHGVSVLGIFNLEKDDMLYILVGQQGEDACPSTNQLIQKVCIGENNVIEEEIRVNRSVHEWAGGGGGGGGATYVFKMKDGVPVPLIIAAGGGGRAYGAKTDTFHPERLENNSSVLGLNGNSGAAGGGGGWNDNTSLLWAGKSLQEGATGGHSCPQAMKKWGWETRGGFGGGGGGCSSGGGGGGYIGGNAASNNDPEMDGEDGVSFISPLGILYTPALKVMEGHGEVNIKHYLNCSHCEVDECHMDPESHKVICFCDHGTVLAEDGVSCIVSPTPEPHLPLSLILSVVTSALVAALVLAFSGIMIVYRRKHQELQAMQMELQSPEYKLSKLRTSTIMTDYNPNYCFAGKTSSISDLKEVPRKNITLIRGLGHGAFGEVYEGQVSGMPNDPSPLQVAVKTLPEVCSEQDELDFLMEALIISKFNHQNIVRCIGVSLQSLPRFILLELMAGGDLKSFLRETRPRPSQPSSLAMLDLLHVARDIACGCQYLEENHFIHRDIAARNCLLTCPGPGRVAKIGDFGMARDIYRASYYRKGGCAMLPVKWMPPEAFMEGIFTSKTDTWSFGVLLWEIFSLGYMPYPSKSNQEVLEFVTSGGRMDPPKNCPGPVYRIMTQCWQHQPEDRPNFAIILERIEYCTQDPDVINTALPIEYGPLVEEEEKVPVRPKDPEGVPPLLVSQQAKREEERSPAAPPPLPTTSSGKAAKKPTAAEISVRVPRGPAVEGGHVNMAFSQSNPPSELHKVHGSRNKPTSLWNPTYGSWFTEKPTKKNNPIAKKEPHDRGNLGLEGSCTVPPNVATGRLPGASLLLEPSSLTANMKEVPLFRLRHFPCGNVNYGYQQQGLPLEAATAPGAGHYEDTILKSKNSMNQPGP
Protocol: Assay of activity on Ba/F3(EML4-ALK) cells
(1) Ba/F3(EML4-ALK) cells were cultured according to the requirements of ATCC, incubated in an incubator at 37° C. and 5% CO2, and analyzed by index; cells with viability of >90% can be used in the assay, and cells were seeded in a 384-well plate (PerkinElmer, 6007680) with 700 cells/well, 30 μl/well.
(2) A compound stock solution was prepared, and diluted 3× to obtain a compound dilution; 30 nL of the serial dilution was added to a 384-well plate (784075, Greiner) by Echo 550, and cells were incubated in an incubator at 37° C. and 5% CO2 for 72 h.
(3) 30 μL of CTG was added to each well, and the 384-well plate was shaken on a Plate shaker (QILINBEIER, QB-9002); the 384-well plate was incubated in the dark at 37° C. and 5% CO2 for 30 min, and the chemiluminescence value was read by Envision (PerkinElmer, EnVision 2104).
The percent inhibition rate (% inhibition) was calculated by the formula below
LUMcmpd: Luminescence value of assay compound.
LUMpositive: Average LUM value of positive drug at a concentration of 10 μM.
LUM^vehicle: Average LUM value of negative control group without drug treatment.
The nonlinear regression curve (dose response-variable slope) between the value of inhibition rate (%) and the logarithm of compound concentration was fitted with graphpad prism 8.0, the effect dose curve of compound was drawn, and the IC50 value was calculated.
Y=Bottom+(Top−Bottom)/(1+10^((LogIC50−X)*HillSlope))
X-axis: logarithm of compound concentration; Y axis: inhibition rate (% inhibition).

[1] = molecular target: Ba/F3(EGFR^Del19/T790M/C797S) cells (Homo sapiens, UniProt P00533, DEL746-750/T790M/C797S, cells depend on it); test: Assay of activity on Ba/F3 cells (CTG, 72 h); assay type: cell-based; conditions: read-out: IC50 (nM) Ba/F3 (EGFR^Del19/T790M/C797S)
Ba/F3(EGFR^Del19/T790M/C797S) cells, sequence (P00533 with tags, fused parts or gaps DEL746-750/T790M/C797S): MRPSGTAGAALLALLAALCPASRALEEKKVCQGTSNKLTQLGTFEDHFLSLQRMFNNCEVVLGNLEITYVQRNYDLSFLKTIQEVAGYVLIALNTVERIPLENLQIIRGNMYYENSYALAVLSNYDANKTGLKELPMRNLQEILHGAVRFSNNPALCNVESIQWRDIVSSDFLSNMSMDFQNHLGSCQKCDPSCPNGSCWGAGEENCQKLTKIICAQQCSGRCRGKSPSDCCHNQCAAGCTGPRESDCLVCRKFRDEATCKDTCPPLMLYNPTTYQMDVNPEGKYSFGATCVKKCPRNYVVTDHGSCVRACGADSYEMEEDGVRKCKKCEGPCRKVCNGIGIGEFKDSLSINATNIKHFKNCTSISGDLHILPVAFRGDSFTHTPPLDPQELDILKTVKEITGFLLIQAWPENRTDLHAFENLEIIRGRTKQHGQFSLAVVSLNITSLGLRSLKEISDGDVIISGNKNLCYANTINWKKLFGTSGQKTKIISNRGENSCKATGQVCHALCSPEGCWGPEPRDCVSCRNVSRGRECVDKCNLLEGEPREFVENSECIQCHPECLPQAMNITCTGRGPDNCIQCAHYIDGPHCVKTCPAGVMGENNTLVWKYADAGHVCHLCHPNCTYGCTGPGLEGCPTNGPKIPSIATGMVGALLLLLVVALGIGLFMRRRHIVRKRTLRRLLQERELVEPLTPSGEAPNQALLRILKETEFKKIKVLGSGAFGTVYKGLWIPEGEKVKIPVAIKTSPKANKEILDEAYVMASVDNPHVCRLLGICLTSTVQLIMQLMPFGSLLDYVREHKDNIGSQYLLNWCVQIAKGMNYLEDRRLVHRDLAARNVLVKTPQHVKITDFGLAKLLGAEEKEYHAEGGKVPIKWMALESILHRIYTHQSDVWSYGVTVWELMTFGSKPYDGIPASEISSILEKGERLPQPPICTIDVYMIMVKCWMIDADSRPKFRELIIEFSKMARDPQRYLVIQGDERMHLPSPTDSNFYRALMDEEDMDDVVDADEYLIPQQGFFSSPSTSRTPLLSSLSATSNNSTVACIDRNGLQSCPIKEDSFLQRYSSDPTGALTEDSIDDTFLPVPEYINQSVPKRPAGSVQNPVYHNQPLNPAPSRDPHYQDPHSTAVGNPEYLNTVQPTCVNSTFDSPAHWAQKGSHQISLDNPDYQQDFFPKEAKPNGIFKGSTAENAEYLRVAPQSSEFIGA
Method in brief: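 Ba/F3 cells dependent on each EGFR triple mutant were exposed to 3-fold compound dilutions for 72 h at 37° C, 5% CO2, with CellTiter-Glo luminescence as the read-out.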

SMILES	GI50 (Ba/F3(EML4-ALK) cells)	GI50 [1]
COc1cc(N2CCC3(CCN(CCCCCCCC#Cc4cccc5c4CN(C4CCC(=O)NC4=O)C5=O)CC3)CC2)c(C)cc1Nc1ncc(Br)c(Nc2ccc3nccnc3c2P(C)(C)=O)n1 (stereo not drawn) [Compound C173, 3-(4-(9-(9-(4-((5-bromo-4-((5-(dimethylphosphoryl)quinoxalin-6-yl)amino)pyrimidin-2-yl)amino)-5-methoxy-2-methylphenyl)-3,9-diazaspiro[5.5]undecan-3-yl)non-1-yn-1-yl)-1-oxoisoindolin-2-yl)piperidine-2,6-dione]	1 to 100 nM	1 to 100 nM
COc1cc(N2CCC(N3CCN(CCCOCC#Cc4cccc5c4CN(C4CCC(=O)NC4=O)C5=O)CC3)CC2)ccc1Nc1ncc(Cl)c(Nc2ccccc2P(C)(C)=O)n1 (stereo not drawn) [Compound C181, 3-(4-(3-(3-(4-(1-(4-((5-chloro-4-((2-(dimethylphosphoryl)phenyl)amino)pyrimidin-2-yl)amino)-3-methoxyphenyl)piperidin-4-yl)piperazin-1-yl)propoxy)prop-1-yn-1-yl)-1-oxoisoindolin-2-yl)piperidine-2,6-dione]	1 to 100 nM	1 to 100 nM
COc1cc(N2CCC(N3CCN(CCCCOCC#Cc4cccc5c4CN(C4CCC(=O)NC4=O)C5=O)CC3)CC2)ccc1Nc1ncc(Cl)c(Nc2ccccc2P(C)(C)=O)n1 (stereo not drawn) [Compound C182, 3-(4-(3-(4-(4-(1-(4-((5-chloro-4-((2-(dimethylphosphoryl)phenyl)amino)pyrimidin-2-yl)amino)-3-methoxyphenyl)piperidin-4-yl)piperazin-1-yl)butoxy)prop-1-yn-1-yl)-1-oxoisoindolin-2-yl)piperidine-2,6-dione]	1 to 100 nM	1 to 100 nM
COc1cc(N2CCC(N3CCN(CCOCC#Cc4cc(F)cc5c4CN(C4CCC(=O)NC4=O)C5=O)CC3)CC2)ccc1Nc1ncc(Cl)c(Nc2ccccc2P(C)(C)=O)n1 (stereo not drawn) [Compound C184, 3-(4-(3-(2-(4-(1-(4-((5-chloro-4-((2-(dimethylphosphoryl)phenyl)amino)pyrimidin-2-yl)amino)-3-methoxyphenyl)piperidin-4-yl)piperazin-1-yl)ethoxy)prop-1-yn-1-yl)-6-fluoro-1-oxoisoindolin-2-yl)piperidine-2,6-dione]	1 to 100 nM	1 to 100 nM
COc1cc(N2CCC(N3CCN(CCCCC#Cc4cccc5c4CN(C4CCC(=O)NC4=O)C5=O)CC3)CC2)c(C)cc1Nc1ncc(Br)c(Nc2ccc3nccnc3c2P(C)(C)=O)n1 (stereo not drawn) [Compound C186, 3-(4-(6-(4-(1-(4-((5-bromo-4-((5-(dimethylphosphoryl)quinoxalin-6-yl)amino)pyrimidin-2-yl)amino)-5-methoxy-2-methylphenyl)piperidin-4-yl)piperazin-1-yl)hex-1-yn-1-yl)-1-oxoisoindolin-2-yl)piperidine-2,6-dione]	1 to 100 nM	1 to 100 nM
COc1cc(N2CCC(N3CCN(CCCCCCCCC#Cc4cccc5c4CN(C4CCC(=O)NC4=O)C5=O)CC3)CC2)c(C)cc1Nc1ncc(Br)c(Nc2ccc3nccnc3c2P(C)(C)=O)n1 (stereo not drawn) [Compound C188, 3-(4-(10-(4-(1-(4-((5-bromo-4-((5-(dimethylphosphoryl)quinoxalin-6-yl)amino)pyrimidin-2-yl)amino)-5-methoxy-2-methylphenyl)piperidin-4-yl)piperazin-1-yl)dec-1-yn-1-yl)-1-oxoisoindolin-2-yl)piperidine-2,6-dione]	> 300 nM	1 to 100 nM
COc1cc(N2CCC3(CCN(CCCCCCCCC#Cc4cccc5c4CN(C4CCC(=O)NC4=O)C5=O)CC3)CC2)c(C)cc1Nc1ncc(Br)c(Nc2ccc3nccnc3c2P(C)(C)=O)n1 (stereo not drawn) [Compound C189, 3-(4-(10-(9-(4-((5-bromo-4-((5-(dimethylphosphoryl)quinoxalin-6-yl)amino)pyrimidin-2-yl)amino)-5-methoxy-2-methylphenyl)-3,9-diazaspiro[5.5]undecan-3-yl)dec-1-yn-1-yl)-1-oxoisoindolin-2-yl)piperidine-2,6-dione]	101 to 200 nM	1 to 100 nM
COc1cc(N2CCC3(CCN(CCCCCC#Cc4ccc5c(c4)CN(C4CCC(=O)NC4=O)C5=O)CC3)CC2)c(C)cc1Nc1ncc(Br)c(Nc2ccc3nccnc3c2P(C)(C)=O)n1 (stereo not drawn) [Compound C191, 3-(5-(7-(9-(4-((5-bromo-4-((5-(dimethylphosphoryl)quinoxalin-6-yl)amino)pyrimidin-2-yl)amino)-5-methoxy-2-methylphenyl)-3,9-diazaspiro[5.5]undecan-3-yl)hept-1-yn-1-yl)-1-oxoisoindolin-2-yl)piperidine-2,6-dione]	101 to 200 nM	1 to 100 nM
COc1cc(N2CCC(N3CCN(CCCCCCCC#Cc4ccc5c(c4)CN(C4CCC(=O)NC4=O)C5=O)CC3)CC2)ccc1Nc1ncc(Cl)c(Nc2ccccc2P(C)(C)=O)n1 (stereo not drawn) [Compound C195, 3-(5-(9-(4-(1-(4-((5-chloro-4-((2-(dimethylphosphoryl)phenyl)amino)pyrimidin-2-yl)amino)-3-methoxyphenyl)piperidin-4-yl)piperazin-1-yl)non-1-yn-1-yl)-1-oxoisoindolin-2-yl)piperidine-2,6-dione]	1 to 100 nM	1 to 100 nM
COc1cc(N2CCC(N3CCN(CCCCCCCCC#Cc4ccc5c(c4)CN(C4CCC(=O)NC4=O)C5=O)CC3)CC2)ccc1Nc1ncc(Cl)c(Nc2ccccc2P(C)(C)=O)n1 (stereo not drawn) [Compound C196, 3-(5-(10-(4-(1-(4-((5-chloro-4-((2-(dimethylphosphoryl)phenyl)amino)pyrimidin-2-yl)amino)-3-methoxyphenyl)piperidin-4-yl)piperazin-1-yl)dec-1-yn-1-yl)-1-oxoisoindolin-2-yl)piperidine-2,6-dione]	1 to 100 nM	1 to 100 nM
COc1cc(N2CCC3(CCN(CCCCCCCOc4cccc5c4CN(C4CCC(=O)NC4=O)C5=O)CC3)CC2)c(C)cc1Nc1ncc(Br)c(Nc2ccc3nccnc3c2P(C)(C)=O)n1 (stereo not drawn) [Compound C211, 3-(4-((7-(9-(4-((5-bromo-4-((5-(dimethylphosphoryl)quinoxalin-6-yl)amino)pyrimidin-2-yl)amino)-5-methoxy-2-methylphenyl)-3,9-diazaspiro[5.5]undecan-3-yl)heptyl)oxy)-1-oxoisoindolin-2-yl)piperidine-2,6-dione]	1 to 100 nM	1 to 100 nM
COc1cc(N2CCC3(CCN(CCOCC#Cc4cc(F)cc5c4CN(C4CCC(=O)NC4=O)C5=O)CC3)CC2)c(C)cc1Nc1ncc(Br)c(Nc2ccc3nccnc3c2P(C)(C)=O)n1 (stereo not drawn) [Compound C310, 3-(4-(3-(2-(9-(4-((5-bromo-4-((5-(dimethylphosphoryl)quinoxalin-6-yl)amino)pyrimidin-2-yl)amino)-5-methoxy-2-methylphenyl)-3,9-diazaspiro[5.5]undecan-3-yl)ethoxy)prop-1-yn-1-yl)-6-fluoro-1-oxoisoindolin-2-yl)piperidine-2,6-dione]	1 to 100 nM	1 to 100 nM
